Laboratory results taken from ChEMBL document CHEMBL3593193, “Discovery of 3,6-dihydroimidazo[4,5-d]pyrrolo[2,3-b]pyridin-2(1H)-one derivatives as novel JAK inhibitors” (Bioorg Med Chem, 2015).

Target: T1, CYP3A4 (Homo sapiens, UniProt P08684)
Test: Reversible inhibition of CYP3A4 in human liver microsomes assessed as remaining enzyme activity by measuring midazolam to 1'-hydroxymidazolam conversion at 5 uM pre-incubated for 30 mins before midazolam addition by LC-MS/MS method
Type: ADME
Conditions: probe midazolam (conversion to 1'-hydroxymidazolam), read-out: Activity

T1 sequence (P08684 whole entry): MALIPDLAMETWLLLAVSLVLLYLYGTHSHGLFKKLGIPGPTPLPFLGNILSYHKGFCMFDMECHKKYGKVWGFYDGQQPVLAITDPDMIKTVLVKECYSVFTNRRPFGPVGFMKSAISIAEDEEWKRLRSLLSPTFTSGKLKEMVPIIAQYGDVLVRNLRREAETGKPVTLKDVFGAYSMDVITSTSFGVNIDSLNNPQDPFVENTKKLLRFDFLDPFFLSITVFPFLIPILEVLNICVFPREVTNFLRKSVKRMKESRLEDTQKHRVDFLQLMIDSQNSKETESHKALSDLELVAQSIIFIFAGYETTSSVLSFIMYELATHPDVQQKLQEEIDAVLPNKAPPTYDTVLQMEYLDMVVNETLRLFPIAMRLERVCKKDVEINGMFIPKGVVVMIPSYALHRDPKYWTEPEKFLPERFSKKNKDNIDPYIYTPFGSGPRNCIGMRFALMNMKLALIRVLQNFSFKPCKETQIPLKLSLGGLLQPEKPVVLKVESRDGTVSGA

Row | SMILES | activity at 30 min, 5 µM [%]
1 | C[C@@H]1CCCC[C@@H]1n1c(=O)[nH]c2cnc3[nH]ccc3c21 | 95

System: Liver microsome
Test: not given
Conditions: rat, microsomes, 0.5 h, 2 µM

Row | SMILES | CLH
2 | O=c1[nH]c2cnc3[nH]ccc3c2n1C1CCOCC1 | Stable
3 | C[C@@H]1CCN(C(=O)CC#N)C[C@@H]1n1c(=O)[nH]c2cnc3[nH]ccc3c21 (racemic) | Stable

System: not listed separately
Test: cells
Conditions: Rattus norvegicus, Lewis, T-cell, 72 h
Description: Inhibition of JAK1/JAK3 in Lewis rat splenocytes assessed as reduction in IL2-induced T cell proliferation incubated for 3 days by alamar blue assay

Row | SMILES | IC50 [nM]
4 | C[C@@H]1CCCC[C@@H]1n1c(=O)[nH]c2cnc3[nH]ccc3c21 | 32
5 | O=c1[nH]c2cnc3[nH]ccc3c2n1C1CCOCC1 | 1400
6 | CC1CCC(n2c(=O)[nH]c3cnc4[nH]ccc4c32)CC1 (centres undefined) | 120
7 | O=c1[nH]c2cnc3[nH]ccc3c2n1C1CCCCCC1 | 74
8 | N#CCC(=O)N1CCC[C@@H](n2c(=O)[nH]c3cnc4[nH]ccc4c32)C1 | 310
9 | O=c1[nH]c2cnc3[nH]ccc3c2n1C1CCCCC1 | 160
10 | O=c1[nH]c2cnc3[nH]ccc3c2n1CC1CCCCC1 | 860
11 | O=c1[nH]c2cnc3[nH]ccc3c2n1C1CCNCC1 | 2800
12 | CC1(C)CCCCC1n1c(=O)[nH]c2cnc3[nH]ccc3c21 (centres undefined) | 110
13 | CC[C@@H]1CCCC[C@@H]1n1c(=O)[nH]c2cnc3[nH]ccc3c21 | 36
14 | CC1CCCC(n2c(=O)[nH]c3cnc4[nH]ccc4c32)C1 (centres undefined) | 1000
15 | C[C@@H]1CCN(C(=O)CC#N)C[C@@H]1n1c(=O)n(C)c2cnc3[nH]ccc3c21 (racemic) | 158
16 | CS(=O)(=O)N1CCC[C@@H](n2c(=O)[nH]c3cnc4[nH]ccc4c32)C1 | 1700
17 | C[C@@H]1CCN(C(=O)CC#N)C[C@@H]1n1c(=O)[nH]c2cnc3[nH]ccc3c21 (racemic) | 36
18 | C[C@H]1CCCC[C@H]1n1c(=O)[nH]c2cnc3[nH]ccc3c21 | 110

Target: Tyrosine-protein kinase JAK1 (Homo sapiens, UniProt P23458)
Test: not given
Conditions: not given

Sequence of Tyrosine-protein kinase JAK1 (P23458 whole entry): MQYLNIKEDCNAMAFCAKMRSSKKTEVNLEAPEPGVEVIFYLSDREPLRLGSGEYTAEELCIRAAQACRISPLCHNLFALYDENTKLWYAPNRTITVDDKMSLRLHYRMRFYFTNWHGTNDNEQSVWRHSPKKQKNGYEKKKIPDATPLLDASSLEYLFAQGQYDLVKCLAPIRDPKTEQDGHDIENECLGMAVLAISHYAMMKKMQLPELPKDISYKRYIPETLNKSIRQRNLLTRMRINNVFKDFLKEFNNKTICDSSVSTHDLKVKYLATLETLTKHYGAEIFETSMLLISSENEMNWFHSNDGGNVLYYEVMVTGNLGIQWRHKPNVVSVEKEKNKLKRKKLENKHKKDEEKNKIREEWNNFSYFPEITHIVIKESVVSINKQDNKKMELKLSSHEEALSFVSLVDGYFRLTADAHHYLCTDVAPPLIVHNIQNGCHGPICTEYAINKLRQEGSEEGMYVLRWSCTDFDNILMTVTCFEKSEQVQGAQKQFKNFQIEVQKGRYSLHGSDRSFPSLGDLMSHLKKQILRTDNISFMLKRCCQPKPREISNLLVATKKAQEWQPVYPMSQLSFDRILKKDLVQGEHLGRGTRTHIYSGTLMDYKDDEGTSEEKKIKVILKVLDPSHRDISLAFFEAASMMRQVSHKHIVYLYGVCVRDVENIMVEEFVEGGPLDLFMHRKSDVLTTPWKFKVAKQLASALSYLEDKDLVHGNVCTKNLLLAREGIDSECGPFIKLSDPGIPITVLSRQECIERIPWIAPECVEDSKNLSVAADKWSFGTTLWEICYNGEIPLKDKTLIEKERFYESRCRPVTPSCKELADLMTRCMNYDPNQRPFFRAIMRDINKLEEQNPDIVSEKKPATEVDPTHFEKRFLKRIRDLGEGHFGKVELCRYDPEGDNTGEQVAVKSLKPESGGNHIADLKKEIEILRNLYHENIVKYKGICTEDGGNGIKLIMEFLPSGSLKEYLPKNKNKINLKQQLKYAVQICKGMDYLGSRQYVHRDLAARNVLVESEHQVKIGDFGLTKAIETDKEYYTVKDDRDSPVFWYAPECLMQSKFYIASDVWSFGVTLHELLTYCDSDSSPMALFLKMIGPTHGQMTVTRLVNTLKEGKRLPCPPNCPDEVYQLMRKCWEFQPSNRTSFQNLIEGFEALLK

Row | SMILES | IC50 [nM]
19 | C[C@@H]1CCCC[C@@H]1n1c(=O)[nH]c2cnc3[nH]ccc3c21 | 14
20 | O=c1[nH]c2cnc3[nH]ccc3c2n1C1CCOCC1 | 520
21 | CC1CCC(n2c(=O)[nH]c3cnc4[nH]ccc4c32)CC1 (centres undefined) | 24
22 | O=c1[nH]c2cnc3[nH]ccc3c2n1C1CCCCCC1 | 30
23 | N#CCC(=O)N1CCC[C@@H](n2c(=O)[nH]c3cnc4[nH]ccc4c32)C1 | 20
24 | CN(c1ccnc2[nH]ccc12)C1CCCCC1 | 2900
25 | O=c1[nH]c2cnc3[nH]ccc3c2n1C1CCCCC1 | 79
26 | O=c1[nH]c2cnc3[nH]ccc3c2n1CC1CCCCC1 | 1000
27 | CC1(C)CCCCC1n1c(=O)[nH]c2cnc3[nH]ccc3c21 (centres undefined) | 90
28 | CC[C@@H]1CCCC[C@@H]1n1c(=O)[nH]c2cnc3[nH]ccc3c21 | 18
29 | CC1CCCC(n2c(=O)[nH]c3cnc4[nH]ccc4c32)C1 (centres undefined) | 430
30 | C[C@@H]1CCN(C(=O)CC#N)C[C@@H]1n1c(=O)n(C)c2cnc3[nH]ccc3c21 (racemic) | 29
31 | CS(=O)(=O)N1CCC[C@@H](n2c(=O)[nH]c3cnc4[nH]ccc4c32)C1 | 230
32 | CS(=O)(=O)N1CCC(n2c(=O)[nH]c3cnc4[nH]ccc4c32)CC1 | 140
33 | C[C@@H]1CCN(C(=O)CC#N)C[C@@H]1n1c(=O)[nH]c2cnc3[nH]ccc3c21 (racemic) | 1.5
34 | C[C@H]1CCCC[C@H]1n1c(=O)[nH]c2cnc3[nH]ccc3c21 | 28
35 | O=c1[nH]c2cnc3[nH]ccc3c2n1C1CCCC1 | 110

Target: T1, CYP3A4
Test: Time dependent inhibition of CYP3A4 in human liver microsomes assessed as remaining enzyme activity by measuring midazolam to 1'-hydroxymidazolam conversion at 5 uM pre-incubated for 30 mins before midazolam addition by LC-MS/MS method
Type: ADME
Conditions: probe midazolam (conversion to 1'-hydroxymidazolam), read-out: Activity

Row | SMILES | activity at 30 min, 5 µM [%]
36 | C[C@@H]1CCCC[C@@H]1n1c(=O)[nH]c2cnc3[nH]ccc3c21 | 49
37 | O=c1[nH]c2cnc3[nH]ccc3c2n1C1CCOCC1 | 90
38 | C[C@@H]1CCN(C(=O)CC#N)C[C@@H]1n1c(=O)[nH]c2cnc3[nH]ccc3c21 (racemic) | 86

System: not listed separately
Test: in vitro
Conditions: Sprague-Dawley, rat, liver microsomes

Row | SMILES | CLint scaled at 0.5 h, 2 µM [mL/min/kg]
39 | C[C@@H]1CCCC[C@@H]1n1c(=O)[nH]c2cnc3[nH]ccc3c21 | 300
40 | O=c1[nH]c2cnc3[nH]ccc3c2n1C1CCCCCC1 | 272
41 | O=c1[nH]c2cnc3[nH]ccc3c2n1C1CCCCC1 | 153
42 | O=c1[nH]c2cnc3[nH]ccc3c2n1CC1CCCCC1 | 802
43 | CC[C@@H]1CCCC[C@@H]1n1c(=O)[nH]c2cnc3[nH]ccc3c21 | > 1000

Target: Tyrosine-protein kinase JAK2 (Homo sapiens, UniProt O60674)
Test: not given
Conditions: not given

Sequence of Tyrosine-protein kinase JAK2 (O60674 whole entry): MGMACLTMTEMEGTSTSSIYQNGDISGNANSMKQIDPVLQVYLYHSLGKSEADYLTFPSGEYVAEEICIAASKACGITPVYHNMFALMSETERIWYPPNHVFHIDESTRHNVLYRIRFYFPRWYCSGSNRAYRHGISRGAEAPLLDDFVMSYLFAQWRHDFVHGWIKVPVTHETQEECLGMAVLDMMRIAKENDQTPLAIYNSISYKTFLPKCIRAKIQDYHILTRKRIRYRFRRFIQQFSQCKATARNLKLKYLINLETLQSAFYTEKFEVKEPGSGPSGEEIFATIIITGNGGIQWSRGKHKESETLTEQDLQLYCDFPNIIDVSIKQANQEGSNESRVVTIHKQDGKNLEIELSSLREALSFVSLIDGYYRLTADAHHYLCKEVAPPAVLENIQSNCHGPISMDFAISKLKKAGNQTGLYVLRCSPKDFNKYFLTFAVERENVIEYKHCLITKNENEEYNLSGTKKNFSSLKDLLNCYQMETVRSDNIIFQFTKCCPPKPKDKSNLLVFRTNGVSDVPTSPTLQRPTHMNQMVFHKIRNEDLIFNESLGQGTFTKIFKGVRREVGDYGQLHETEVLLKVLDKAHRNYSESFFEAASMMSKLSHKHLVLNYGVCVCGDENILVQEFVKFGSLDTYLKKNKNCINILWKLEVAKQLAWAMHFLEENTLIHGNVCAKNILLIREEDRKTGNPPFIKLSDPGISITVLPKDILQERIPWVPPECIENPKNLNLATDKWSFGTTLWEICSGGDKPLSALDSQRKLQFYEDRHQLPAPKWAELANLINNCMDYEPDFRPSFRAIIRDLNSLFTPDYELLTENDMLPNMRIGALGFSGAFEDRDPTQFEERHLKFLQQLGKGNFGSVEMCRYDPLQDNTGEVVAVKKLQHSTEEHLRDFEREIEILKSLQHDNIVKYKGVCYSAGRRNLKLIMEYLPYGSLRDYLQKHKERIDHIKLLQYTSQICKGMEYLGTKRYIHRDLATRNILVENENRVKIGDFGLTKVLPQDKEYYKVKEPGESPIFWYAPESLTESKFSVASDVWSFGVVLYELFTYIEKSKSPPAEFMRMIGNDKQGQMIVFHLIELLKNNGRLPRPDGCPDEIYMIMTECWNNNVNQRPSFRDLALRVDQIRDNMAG

Row | SMILES | IC50 [nM]
44 | C[C@@H]1CCCC[C@@H]1n1c(=O)[nH]c2cnc3[nH]ccc3c21 | 4.4
45 | CC1CCC(n2c(=O)[nH]c3cnc4[nH]ccc4c32)CC1 (centres undefined) | 23
46 | O=c1[nH]c2cnc3[nH]ccc3c2n1C1CCCCCC1 | 23
47 | N#CCC(=O)N1CCC[C@@H](n2c(=O)[nH]c3cnc4[nH]ccc4c32)C1 | 17
48 | CN(c1ccnc2[nH]ccc12)C1CCCCC1 | 1800
49 | O=c1[nH]c2cnc3[nH]ccc3c2n1C1CCCCC1 | 43
50 | CS(=O)(=O)N1CCC[C@H](n2c(=O)[nH]c3cnc4[nH]ccc4c32)C1 | 850
51 | O=c1[nH]c2cnc3[nH]ccc3c2n1CC1CCCCC1 | 88
52 | O=c1[nH]c2cnc3[nH]ccc3c2n1C1CCNCC1 | 1300
53 | CC1(C)CCCCC1n1c(=O)[nH]c2cnc3[nH]ccc3c21 (centres undefined) | 85
54 | CC[C@@H]1CCCC[C@@H]1n1c(=O)[nH]c2cnc3[nH]ccc3c21 | 3.6
55 | CC1CCCC(n2c(=O)[nH]c3cnc4[nH]ccc4c32)C1 (centres undefined) | 23
56 | C[C@@H]1CCN(C(=O)CC#N)C[C@@H]1n1c(=O)n(C)c2cnc3[nH]ccc3c21 (racemic) | 7.3
57 | CS(=O)(=O)N1CCC[C@@H](n2c(=O)[nH]c3cnc4[nH]ccc4c32)C1 | 82
58 | CS(=O)(=O)N1CCC(n2c(=O)[nH]c3cnc4[nH]ccc4c32)CC1 | 140
59 | C[C@@H]1CCN(C(=O)CC#N)C[C@@H]1n1c(=O)[nH]c2cnc3[nH]ccc3c21 (racemic) | 2.6
60 | C[C@H]1CCCC[C@H]1n1c(=O)[nH]c2cnc3[nH]ccc3c21 | 17
61 | O=c1[nH]c2cnc3[nH]ccc3c2n1C1CCCC1 | 97

Target: T2, Tyrosine-protein kinase JAK3 (Homo sapiens, UniProt P52333)
T2 sequence (P52333 whole entry): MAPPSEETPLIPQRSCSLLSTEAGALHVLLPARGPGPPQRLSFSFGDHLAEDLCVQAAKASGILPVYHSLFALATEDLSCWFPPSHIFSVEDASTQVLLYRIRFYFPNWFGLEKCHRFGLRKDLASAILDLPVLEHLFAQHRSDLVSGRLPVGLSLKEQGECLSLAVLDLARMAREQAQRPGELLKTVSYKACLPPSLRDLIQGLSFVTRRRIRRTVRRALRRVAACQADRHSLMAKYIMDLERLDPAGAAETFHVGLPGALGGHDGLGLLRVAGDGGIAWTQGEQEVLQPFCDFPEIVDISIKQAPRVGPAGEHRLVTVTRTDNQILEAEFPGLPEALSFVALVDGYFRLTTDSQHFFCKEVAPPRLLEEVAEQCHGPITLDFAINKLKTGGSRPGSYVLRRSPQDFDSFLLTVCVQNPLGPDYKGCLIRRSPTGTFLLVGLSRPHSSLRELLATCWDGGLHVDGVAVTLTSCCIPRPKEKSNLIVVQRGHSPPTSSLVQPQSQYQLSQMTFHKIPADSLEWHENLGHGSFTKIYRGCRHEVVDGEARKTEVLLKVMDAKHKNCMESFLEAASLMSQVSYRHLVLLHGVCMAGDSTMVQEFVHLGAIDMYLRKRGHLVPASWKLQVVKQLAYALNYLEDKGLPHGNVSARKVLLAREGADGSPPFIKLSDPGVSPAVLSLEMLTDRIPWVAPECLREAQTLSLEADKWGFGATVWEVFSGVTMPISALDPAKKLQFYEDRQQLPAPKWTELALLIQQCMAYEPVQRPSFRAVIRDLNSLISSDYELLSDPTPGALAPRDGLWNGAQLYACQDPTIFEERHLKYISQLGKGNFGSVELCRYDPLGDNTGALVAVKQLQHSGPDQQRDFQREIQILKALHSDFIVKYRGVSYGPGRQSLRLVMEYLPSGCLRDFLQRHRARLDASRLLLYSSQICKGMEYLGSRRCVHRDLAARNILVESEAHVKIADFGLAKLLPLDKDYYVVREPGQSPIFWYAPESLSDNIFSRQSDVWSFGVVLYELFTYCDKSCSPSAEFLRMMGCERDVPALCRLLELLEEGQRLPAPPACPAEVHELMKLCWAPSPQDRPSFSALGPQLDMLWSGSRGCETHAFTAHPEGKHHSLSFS
Test: not given
Conditions: not given

Row | SMILES | IC50 [nM]
62 | O=c1[nH]c2cnc3[nH]ccc3c2n1C1CCOCC1 | 270
63 | CC1CCC(n2c(=O)[nH]c3cnc4[nH]ccc4c32)CC1 (centres undefined) | 42
64 | O=c1[nH]c2cnc3[nH]ccc3c2n1C1CCCCCC1 | 22
65 | N#CCC(=O)N1CCC[C@@H](n2c(=O)[nH]c3cnc4[nH]ccc4c32)C1 | 28
66 | CN(c1ccnc2[nH]ccc12)C1CCCCC1 | 1100
67 | O=c1[nH]c2cnc3[nH]ccc3c2n1C1CCCCC1 | 54
68 | CS(=O)(=O)N1CCC[C@H](n2c(=O)[nH]c3cnc4[nH]ccc4c32)C1 | 460
69 | O=c1[nH]c2cnc3[nH]ccc3c2n1CC1CCCCC1 | 60
70 | O=c1[nH]c2cnc3[nH]ccc3c2n1C1CCNCC1 | 1200
71 | CC1(C)CCCCC1n1c(=O)[nH]c2cnc3[nH]ccc3c21 (centres undefined) | 69
72 | CC[C@@H]1CCCC[C@@H]1n1c(=O)[nH]c2cnc3[nH]ccc3c21 | 3
73 | CC1CCCC(n2c(=O)[nH]c3cnc4[nH]ccc4c32)C1 (centres undefined) | 21
74 | C[C@@H]1CCN(C(=O)CC#N)C[C@@H]1n1c(=O)n(C)c2cnc3[nH]ccc3c21 (racemic) | 5
75 | CS(=O)(=O)N1CCC[C@@H](n2c(=O)[nH]c3cnc4[nH]ccc4c32)C1 | 63
76 | CS(=O)(=O)N1CCC(n2c(=O)[nH]c3cnc4[nH]ccc4c32)CC1 | 710
77 | C[C@@H]1CCN(C(=O)CC#N)C[C@@H]1n1c(=O)[nH]c2cnc3[nH]ccc3c21 (racemic) | 1.1
78 | C[C@H]1CCCC[C@H]1n1c(=O)[nH]c2cnc3[nH]ccc3c21 | 27
79 | O=c1[nH]c2cnc3[nH]ccc3c2n1C1CCCC1 | 180
